Test results from patent US20160290995A1, “METHODS OF SELECTING AKT AGONISTS OR ANTAGONISTS” (OREGON HEALTH & SCIENCE UNIVERSITY, priority 2015, published 2016).

Tests used:
Akt phosphorylation [1] = assay: Immunoblotting of Akt phosphorylation in C2 myoblast whole cell lysates; format: cell-based, mouse; details: different concentrations of IGF-I, C2 myoblasts
Description: (§1) Whole cell protein lysates were prepared as described (Mukherjee A and Rotwein P, Mol Endorcrinol 22, 1238-1250 (2008); incorporated by reference herein). Protein aliquots (15 μg/lane) were resolved by SDS-PAGE (12% separating gel), followed by transfer to Immobilon-FL membranes, and blocking with 50% AquaBlock solution. Membranes were incubated sequentially with primary and secondary antibodies, as described (Mukherjee and Rotwein, 2008 supra). Primary antibodies were incubated for 12-16 hr at a 1:1000 dilution, except for α-tubulin (1:10,000), and secondary antibodies for 90 min at 1:5000. Images were captured using the LiCoR Odyssey and version 3.0 analysis software (Lincoln, Nebr.).

Akt phosphorylation [2] = assay: Immunoblotting of Akt and PRAS40 phosphorylation in 10T1/2 whole cell lysates; format: cell-based, mouse
Description: (§2) Cells were imaged every 2-min for 60 min. At the end of the incubation period whole cell lysates were collected.
as §1
C3H10T1/2 cells stably expressing FoxO1-clover were incubated in SFM with Fluorobrite imaging media for 90 min followed by addition of insulin [1400 pM], EGF [4.2 nM], PDGF-AA [1400 pM], or PDGF BB [104 pM]. Whole protein lysates were collected after 0, 5, 15, 30, 60, and 90 min of growth factor exposure by washing cells twice with cold PBS and addition of RIPA buffer containing protease and phosphatase inhibitors (Mukherjee A and Rotwein P, Mol Endocrinol 22, 1238-1250 (2008); incorporated by reference herein). Protein aliquots (12.5 μg/lane) were resolved by SDS PAGE (10% separating gels), and transferred onto Immobilon-FL membranes. Membranes were incubated in 50% AquaBlock for 60 min, followed by addition of primary antibodies at 1:1000 dilution for 16 hr, and secondary antibodies for 90 min at 1:5000. Images were collected using the LiCoR Odyssey and analysis software version 3.0 (Lincoln, Nebr.).

Akt [3] = assay: FOXO1-clover reporter live-cell imaging in C2 myoblasts; format: cell-based, mouse; details: different concentrations of R3-IGF-I, 60 min
Description: C3H10T1/2 mouse embryonic fibroblasts (ATCC #CCL226) were incubated in DMEM supplemented with 10% FBS. Mouse C2 myoblasts (Yaffe and Saxel, 1977) were grown in DMEM supplemented with 10% FBS and 10% newborn calf serum. Cells were transduced at 50% of confluent density with concentrated virus in the presence of 6 μg/ml polybrene, as described (Mukherjee A et al, Mol Cell Biol 30, 1018-1027 (2010); incorporated by reference herein). Cells were then selected by incubation with puromycin (2 μg/ml) for one week. Surviving cells were sorted by fluorescence intensity using a Becton-Dickinson Influx cell sorter at the OHSU Flow Cytometry Core Facility. Reporter expression was stable for at least 10 passages in each sorted cell population.
10T1/2 cells and C2 myoblasts were incubated in serum-free medium for 90 min. R3-IGF-I was added in supplemented FluoroBrite [0 to 500 pM], and cells were imaged every 2-min for 60 min.

Akt [4] = assay: FOXO1-clover reporter live-cell imaging (relative nuclear intensity) in C3H10T1/2 fibroblasts; format: cell-based, mouse; details: for change of nuclear levels of the reporter on growth factor addition (result in words): different concentrations; for change of nuclear levels of the reporter on growth factor addition (result in words) / time to half-maximal translocation/accumulation of reporter in the cytoplasm after onset of incubation / time to maximal translocation values: cells pre-incubated in SFM, population level; for time to half-maximal translocation/accumulation of reporter in the cytoplasm after onset of incubation / time to maximal translocation values: different growth factor concentrations
Description: as §2
10T1/2 cells and C2 myoblasts were incubated in serum-free medium for 90 min. R3-IGF-I was added in supplemented FluoroBrite [0 to 500 pM], and cells were imaged every 2-min for 60 min. […]
(§3) Live cell imaging was performed using an EVOS FL Auto microscope with a stage top incubator that was maintained at 37° C. and 95% humidified air with 5% CO2. Images were collected at 100× magnification at different intervals, using a 10× Fluorite objective (numerical aperture: 0.3), and a GFP light cube (excitation peak, 472/22 nm; emission peak, 510/42 nm). Images were analyzed with the NIH ImageJ plug-in Fiji (NIH, Bethesda, Md.), after using the Polynomial Fit plug-in to subtract background fluorescence, the Stack Reg (rigid registration) plug-in to register images, and the Gaussian Blur plug-in (at 2-pixels) to average fluorescence across pixels. Individual cells were manually tracked using the mTrackJ plug-in (Meijering E et al, Methods Enzymol 504, 183-200 (2012); incorporated by reference herein) by selecting a single point in the nucleus. Cells that died, divided, or migrated out of frame were excluded from analysis. In experiments performed in 6-well dishes, two locations on opposite sides of the well were imaged, while for studies using 24-well plates, one central location was imaged. In each location, at least 25 cells were tracked.

Akt [5] = assay: FoxO1-clover reporter live-cell imaging in HeLa cells; format: cell-based; details: IGF-I 500 pM, insulin 1400 pM, EGF 4.2 nM, PDGF-BB 4.1 nM, PDGF-AA 3.5 nM; 90 min
Description: HeLa cells (ATCC #CCL2) were incubated in DMEM supplemented with 10% FBS. Cells were transduced at 50% of confluent density with concentrated FoxO1-clover virus in the presence of polybrene (6 μg/ml), as described (Gross S M and Rotwein P, Skelet Muscle 3, doi10.1186/2044-5040-3-10 (2013); incorporated by reference herein), and sorted by fluorescence intensity with a Becton-Dickinson Influx cell sorter. Reporter expression was stable for at least 10 passages in each sorted cell population. C3H10T1/2 mouse embryonic fibroblasts (ATC #CCL226) stably expressing FoxO1-clover (Gross and Rotwein, 2015), were maintained under selection with puromycin (2 μg/ml).
as §3, with “tracked. The relative nuclear intensity of the FoxO1-clover reporter protein was calculated in each cell by normalizing the values measured at time 0 to 100%. This corresponded to incubation in serum-free medium (SFM). In graphs in which single cell responses were plotted with C3H10T1/2 cells, we applied a time-weighted smoothing filter to each data point. This consisted of averaging contributions from the two prior and two succeeding times (adding 50% of the prior or succeeding time point, and 25% of the next succeeding or earlier time point to 100% of the value of the time point in question, and then dividing by 2.5).” for “tracked.”
Short-term responses to individual growth factors: C3H10T1/2 cells were incubated in serum-free Fluorobrite medium plus 2 mM L-glutamine and 0.1% bovine serum albumin for 90 min. Different concentrations of growth factors were added and images were collected every 2 min for 90 min. Growth factors included insulin [0 to 1400 pM], EGF [0 to 4.2 nM], PDGF-AA [0 to 1400 pM], or PDGF-BB [0 to 104 pM]. HeLa cells were incubated in serum-free Fluorobrite medium for 120 min and then incubated with insulin [1400 pM], EGF [4.2 nM], PDGF-AA [3.5 nM], PDGF-BB [4.1 nM], or R3-486 IGF-I [500 pM], with images collected every 2 min.

IGF-I receptor = IGF-I receptor (Homo sapiens, UniProt P08069); details: cited from earlier work
IGF-I receptor, sequence (P08069 31-736 limits assumed, species assumed): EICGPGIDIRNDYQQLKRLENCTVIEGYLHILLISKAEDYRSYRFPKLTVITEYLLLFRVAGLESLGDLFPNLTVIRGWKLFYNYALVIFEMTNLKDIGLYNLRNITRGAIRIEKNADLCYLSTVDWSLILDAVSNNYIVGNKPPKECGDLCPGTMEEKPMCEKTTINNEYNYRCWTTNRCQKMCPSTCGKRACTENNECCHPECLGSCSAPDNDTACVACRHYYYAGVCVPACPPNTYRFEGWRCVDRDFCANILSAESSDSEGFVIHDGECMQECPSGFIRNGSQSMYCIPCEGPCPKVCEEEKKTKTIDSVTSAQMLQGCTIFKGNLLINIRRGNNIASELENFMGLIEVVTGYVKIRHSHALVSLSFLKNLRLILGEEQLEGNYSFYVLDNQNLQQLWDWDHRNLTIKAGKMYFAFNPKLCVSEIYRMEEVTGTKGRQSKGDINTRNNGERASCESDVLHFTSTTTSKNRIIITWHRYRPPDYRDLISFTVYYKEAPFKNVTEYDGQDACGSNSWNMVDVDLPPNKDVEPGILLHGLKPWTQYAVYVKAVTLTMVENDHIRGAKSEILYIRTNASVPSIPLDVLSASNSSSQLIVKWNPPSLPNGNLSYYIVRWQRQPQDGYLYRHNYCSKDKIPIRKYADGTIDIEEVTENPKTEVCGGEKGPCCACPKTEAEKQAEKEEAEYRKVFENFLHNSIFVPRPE
IGF-I receptor, sequence (P08069 741-1367 partner limits assumed, species assumed): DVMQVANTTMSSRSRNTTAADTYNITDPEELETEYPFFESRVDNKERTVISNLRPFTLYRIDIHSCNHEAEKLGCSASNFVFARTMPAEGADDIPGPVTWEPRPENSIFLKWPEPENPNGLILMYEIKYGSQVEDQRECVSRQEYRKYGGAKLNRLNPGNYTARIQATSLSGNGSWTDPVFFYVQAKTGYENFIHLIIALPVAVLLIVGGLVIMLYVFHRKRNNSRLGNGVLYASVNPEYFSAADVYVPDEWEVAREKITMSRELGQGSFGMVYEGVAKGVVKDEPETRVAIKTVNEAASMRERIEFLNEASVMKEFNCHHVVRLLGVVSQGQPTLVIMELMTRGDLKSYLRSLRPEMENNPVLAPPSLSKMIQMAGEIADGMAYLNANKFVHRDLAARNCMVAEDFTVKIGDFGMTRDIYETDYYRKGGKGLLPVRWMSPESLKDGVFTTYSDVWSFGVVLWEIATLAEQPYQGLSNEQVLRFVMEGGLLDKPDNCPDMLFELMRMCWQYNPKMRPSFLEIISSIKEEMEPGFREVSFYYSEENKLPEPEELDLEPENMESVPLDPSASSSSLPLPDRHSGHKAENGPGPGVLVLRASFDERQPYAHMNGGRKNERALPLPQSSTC

Substance | extent of Akt phosphorylation (immunoblot) (Akt phosphorylation [1]) | Akt phosphorylation (pAkt T308 immunoblot) (Akt phosphorylation [2]; 60 min, 10% FBS, PDGF-BB 206 pM, R3-IGF-I 1 nM, BMP-2 15 nM) | extent of Akt phosphorylation (immunoblot) (Akt phosphorylation [2]; different concentrations of IGF-I, 10T1/2 cells) | reporter response in C2 myoblasts compared with 10T1/2 cells (Akt [3]) | response to IGF-I after prior EGF (Akt [4]; EGF 4.2 nM for 60 min, then IGF-I 500 pM) | change of nuclear levels of the reporter on growth factor addition (result in words) (Akt [4]) | time to half-maximal translocation/accumulation of reporter in the cytoplasm after onset of incubation (Akt [4]) | time to maximal translocation values (Akt [4]) | response to a second treatment with the same growth factor (Akt [4]; sequential exposures, IGF-I 50 or 500 pM with 90-min washout, EGF 4.2 nM after 60 min EGF) | subcellular localization of FOXO1-clover (result in words) (Akt [4]; serum-starved cells, 60 min, 10% FBS, PDGF-BB 206 pM, R3-IGF-I 1 nM, BMP-2 15 nM) | signaling response in HeLa FoxO1-clover cells (result in words) (Akt [5]) | affinity for IGF-I receptor relative to insulin receptor (fold less) (IGF-I receptor) | time at which phosphorylation of Akt and PRAS40 was detected (Akt phosphorylation [2]; insulin 1400 pM) | time course of Akt and PRAS40 phosphorylation (result in words) (Akt phosphorylation [2]; insulin 1400 pM, EGF 4.2 nM, PDGF-AA 1400 pM, PDGF-BB 104 pM, up to 90 min)
R3-IGF-I: growth factor purchased from GroPep; binds minimally to IGF binding proteins; activates Akt | dose-dependent increase in the extent of Akt phosphorylation | stimulation of Akt phosphorylation | dose-dependent increase in the extent of Akt phosphorylation | marked increase in sensitivity to IGF-I | rapid, extensive, and sustained signaling response | rapid and dose-dependent reduction in nuclear levels of the reporter | 8 to 10 min | 14 to 16 min | qualitatively similar population responses to each dose | rapid and sustained translocation of the reporter from the nucleus to the cytoplasm | sustained signaling effects | – | – | –
insulin: recombinant human insulin (Tocris Bioscience) | – | – | – | – | – | rapid, dose-dependent, and sustained decrease in nuclear levels of FoxO1-clover | 8 to 15 min | ~20 min | – | – | sustained signaling effects | ~1000 fold | ≤ 5 min | rapid and sustained
